Results on 22 molecules are retold here after patent US20220402916A1, “SMALL MOLECULE INHIBITORS OF KRAS G12C MUTANT” (Merck Sharp & Dohme Corp., priority 2019, published 2022).

T1 sequence (P01116 with tags, fused parts or gaps isoform P01116-2 G12C/C51S/C80L/C118S): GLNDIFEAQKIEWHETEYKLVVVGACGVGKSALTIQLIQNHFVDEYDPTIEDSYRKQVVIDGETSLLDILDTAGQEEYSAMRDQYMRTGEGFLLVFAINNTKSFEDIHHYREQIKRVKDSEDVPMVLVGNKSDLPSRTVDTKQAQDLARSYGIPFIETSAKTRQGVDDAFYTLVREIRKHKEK

The first test has as its target T1, Biotinylated KRAS G12C protein (Homo sapiens, UniProt P01116, C118S/C51S/C80L/G12C).
T1 construct: 183 amino acids; biotin on K10
Briefly: SOS-catalyzed nucleotide exchange assay. Type of test: biochemical. Conditions: 10,000 nM; 60 minutes of preincubation prior to addition of SOS. The method, then: Compounds are added to this complex, and then after 60 minute incubation time the mixture is treated with recombinant SOS protein and unlabeled GTP. Small molecule inhibitors stabilize the Bodipy-GDP complex whereas the untreated protein rapidly exchanges Bodipy-GDP for unlabeled GTP resulting in reduced TR-FRET signal. […] This mixture is then further diluted to 90 nM in an assay buffer (20 mM HEPES, 150 mM sodium chloride, 10 mM magnesium chloride, and 0.005% Tween) containing 15 nM of Terbium-Streptavidin (Invitrogen, catalog #PV3577) and 900 nM of Bodipy-GDP and incubated at room temperature for six hours. […] Each test compound (10 mM stock in DMSO) is diluted in DMSO to make a 10-point, 3-fold dilution series in a 384-well low dead volume microplate (Labcyte, catalog #LP-0200). Once titrations are made, 10 nL of the diluted compounds is acoustically dispensed into a 384-well assay plate (Corning, catalog #3820) using an Echo 550 (Labcyte). […] Each well then receives 3 μL of 240 nM recombinant human SOS protein and 9 mM GTP (Sigma, G8877) in assay buffer and is incubated at room temperature for 60 minutes. The time-resolved fluorescence resonance energy transfer signal for the assay plate is measured on an Envision (PerkinElmer) plate reader: Excitation filter=340 nm; emission1=495 nm; emission2=520 nm; dichroic mirror=D400/D505; delay time=100 μs. The signal of each well is determined as the ratio of the emission at 520 nm to that at 495 nm. […] The apparent effect as a function of compound concentration is fit to a four parameter logistic equation.
By inhibition is commonly meant the share of the control response that was lost under treatment. With `C=CC(=O)N1C[C@H](C)N(c2cc(C(=O)NCCN(C)C)nc3c2CCN(c2cccc4cccc(C)c24)C3)C[C@H]1C` [Compound 59, 4-((2S,5R)-4-acryloyl-2,5-dimethylpiperazin-1-yl)-N-(2-(dimethylamino)ethyl)-7-(8-methylnaphthalen-1-yl)-5,6,7,8-tetrahydro-1,7-naphthyridine-2-carboxamide], 10 µM produced 38% inhibition. The same measure, in the same setting: the same measure for `C=CC(=O)N1CCN(c2cc(C(=O)N(C)CCN(C)C)nc3c2CCN(c2cccc4cccc(C)c24)C3)CC1` [Compound 15, 4-(4-acryloylpiperazin-1-yl)-N-(2-(dimethylamino)ethyl)-N-methyl-7-(8-methylnaphthalen-1-yl)-5,6,7,8-tetrahydro-1,7-naphthyridine-2-carboxamide]: 33%. Regarding `C=CC(=O)N1CCN(c2cc(C(=O)NCC(C)(C)CN(C)C)nc3c2CCN(c2cccc4cccc(C)c24)C3)CC1` [Compound 22, 4-(4-acryloylpiperazin-1-yl)-N-(3-(dimethylamino)-2,2-dimethylpropyl)-7-(8-methylnaphthalen-1-yl)-5,6,7,8-tetrahydro-1,7-naphthyridine-2-carboxamide], the inhibition at 10 µM is 37%. On the same count and under the same terms, the same measure for `C=CC(=O)N1CCN(c2cc(C(=O)N[C@H]3COC[C@@H]3N3CCOCC3)nc3c2CCN(c2cccc4cccc(C)c24)C3)CC1` (racemic) [Compound 35, rac-4-(4-acryloylpiperazin-1-yl)-7-(8-methylnaphthalen-1-yl)-N-(trans-4-morpholinotetrahydrofuran-3-yl)-5,6,7,8-tetrahydro-1,7-naphthyridine-2-carboxamide]: 39%; for `C=CC(=O)N1CCN(c2cc(C(=O)N[C@@H]3COC[C@@H]3N3CCOCC3)nc3c2CCN(c2cccc4cccc(C)c24)C3)CC1` (racemic) [Compound 27, rac-4-(4-acryloylpiperazin-1-yl)-7-(8-methylnaphthalen-1-yl)-N-(cis-4-morpholinotetrahydrofuran-3-yl)-5,6,7,8-tetrahydro-1,7-naphthyridine-2-carboxamide]: 29%; for `C=CC(=O)N1CCN(c2cc(C(=O)NCC3CN(C)CCO3)nc3c2CCN(c2cccc4cccc(C)c24)C3)CC1` (racemic) [Compound 55, rac-4-(4-acryloylpiperazin-1-yl)-N-((4-methylmorpholin-2-yl)methyl)-7-(8-methylnaphthalen-1-yl)-5,6,7,8-tetrahydro-1,7-naphthyridine-2-carboxamide]: 31%.

Still in this test, the particulars now being: apparent potency; preincubation time of 60 minutes prior to addition of SOS.
In general, IC50 refers to the concentration that gives 50% inhibition. Consider `C=CC(=O)N1CCN(c2cc(C(=O)N3CCC[C@@H]3CN3CCCC3)nc3c2CCN(c2cccc4cccc(C)c24)C3)CC1` [Compound 42, (R)-1-(4-(7-(8-methylnaphthalen-1-yl)-2-(2-(pyrrolidin-1-ylmethyl)pyrrolidine-1-carbonyl)-5,6,7,8-tetrahydro-1,7-naphthyridin-4-yl)piperazin-1-yl)prop-2-en-1-one], for which the half-maximal inhibitory concentration (IC50) was determined as 3770 nM. The same measure, in the same setting: the same measure for `C=CC(=O)N1CCN(c2cc(C(=O)NC3CN(C)C3)nc3c2CCN(c2cccc4cccc(C)c24)C3)CC1` [Compound 48, 4-(4-acryloylpiperazin-1-yl)-N-(1-methylazetidin-3-yl)-7-(8-methylnaphthalen-1-yl)-5,6,7,8-tetrahydro-1,7-naphthyridine-2-carboxamide]: 7290 nM; for `C=CC(=O)N1CCN(c2cc(C(=O)N[C@H](C)CN3CCOCC3)nc3c2CCN(c2cccc4cccc(C)c24)C3)CC1` [Compound 24, (R)-4-(4-acryloylpiperazin-1-yl)-7-(8-methylnaphthalen-1-yl)-N-(1-morpholinopropan-2-yl)-5,6,7,8-tetrahydro-1,7-naphthyridine-2-carboxamide]: 1490 nM.

As to `C=CC(=O)N1CCN(c2cc(C(=O)N[C@@H]3CCC[C@H]3N(C)C)nc3c2CCN(c2cccc4ccccc24)C3)CC1` (racemic) [Compound 7, rac-4-(4-acryloylpiperazin-1-yl)-N-(trans-2-(dimethylamino)cyclo-pentyl)-7-(naphthalen-1-yl)-5,6,7,8-tetrahydro-1,7-naphthyridine-2-carboxamide], the IC50 turned out to be 1590 nM. For the molecule `C=CC(=O)N1CCN(c2cc(C(=O)N[C@H]3COC[C@@H]3N3CCN(C)CC3)nc3c2CCN(c2cccc4cccc(C)c24)C3)CC1` (racemic) [Compound 33, rac-4-(4-acryloylpiperazin-1-yl)-7-(8-methylnaphthalen-1-yl)-N-(trans-4-(4-methylpiperazin-1-yl)tetrahydrofuran-3-yl)-5,6,7,8-tetrahydro-1,7-naphthyridine-2-carboxamide], the concentration for half-maximal inhibition (IC50) worked out at 6650 nM. Same read-out and setting: the same measure for `C=CC(=O)N1CCN(c2cc(C(=O)N[C@@H]3CCN(C)C3)nc3c2CCN(c2cccc4cccc(C)c24)C3)CC1` [Compound 50, (R)-4-(4-acryloylpiperazin-1-yl)-7-(8-methylnaphthalen-1-yl)-N-(1-methylpyrrolidin-3-yl)-5,6,7,8-tetrahydro-1,7-naphthyridine-2-carboxamide]: 3570 nM; for `C=CC(=O)N1CCN(c2cc(C(=O)NC3CCCC(N(C)C)C3)nc3c2CCN(c2cccc4cccc(C)c24)C3)CC1` (racemic) [Compound 40, rac-(cis,trans)-4-(4-acryloylpiperazin-1-yl)-N-(3-(dimethylamino)cyclohexyl)-7-(8-methylnaphthalen-1-yl)-5,6,7,8-tetrahydro-1,7-naphthyridine-2-carboxamide]: 3540 nM; for `C=CC(=O)N1CCN(c2cc(C(=O)NC(CO)CN(C)C)nc3c2CCN(c2cccc4cccc(C)c24)C3)CC1` (racemic) [Compound 16, rac-4-(4-acryloylpiperazin-1-yl)-N-(1-(dimethylamino)-3-hydroxypropan-2-yl)-7-(8-methylnaphthalen-1-yl)-5,6,7,8-tetrahydro-1,7-naphthyridine-2-carboxamide]: 962 nM.

`C=CC(=O)N1CCN(c2cc(C(=O)N3CCCC3CN3CCCCC3)nc3c2CCN(c2cccc4cccc(C)c24)C3)CC1` (racemic) [Compound 44, rac-1-(4-(7-(8-methylnaphthalen-1-yl)-2-(2-(piperidin-1-ylmethyl)pyrrolidine-1-carbonyl)-5,6,7,8-tetrahydro-1,7-naphthyridin-4-yl)piperazin-1-yl)prop-2-en-1-one]: the IC50 came out at 7870 nM.

As to `C=CC(=O)N1CCN(c2cc(C(=O)N3CCCC3CN3CCCCCC3)nc3c2CCN(c2cccc4cccc(C)c24)C3)CC1` (racemic) [Compound 45, rac-1-(4-(2-(2-(azepan-1-ylmethyl)pyrrolidine-1-carbonyl)-7-(8-methylnaphthalen-1-yl)-5,6,7,8-tetrahydro-1,7-naphthyridin-4-yl)piperazin-1-yl)prop-2-en-1-one], the half-maximal inhibitory concentration (IC50) stood at 5350 nM. On the same count and under the same terms, the same measure for `C=CC(=O)N1CCN(c2cc(C(=O)N3CCC[C@H]3CN3CCCC3)nc3c2CCN(c2cccc4cccc(C)c24)C3)CC1` [Compound 41, (S)-1-(4-(7-(8-methylnaphthalen-1-yl)-2-(2-(pyrrolidin-1-ylmethyl)pyrrolidine-1-carbonyl)-5,6,7,8-tetrahydro-1,7-naphthyridin-4-yl)piperazin-1-yl)prop-2-en-1-one]: 9590 nM. For `C=CC(=O)N1CCN(c2cc(C(=O)NC3CCN(C)CC3)nc3c2CCN(c2cccc4cccc(C)c24)C3)CC1` [Compound 54, 4-(4-acryloylpiperazin-1-yl)-7-(8-methylnaphthalen-1-yl)-N-(1-methylpiperidin-4-yl)-5,6,7,8-tetrahydro-1,7-naphthyridine-2-carboxamide], the half-maximal inhibitory concentration (IC50) came to 9150 nM. Still for that read-out and setting: the same measure for `C=CC(=O)N1CCN(c2cc(C(=O)NC3CCCN(C)C3)nc3c2CCN(c2cccc4cccc(C)c24)C3)CC1` (racemic) [Compound 52, rac-4-(4-acryloylpiperazin-1-yl)-7-(8-methylnaphthalen-1-yl)-N-(1-methylpiperidin-3-yl)-5,6,7,8-tetrahydro-1,7-naphthyridine-2-carboxamide]: 5500 nM; for `C=CC(=O)N1CCN(c2cc(C(=O)N[C@H]3COC[C@@H]3N)nc3c2CCN(c2cccc4cccc(C)c24)C3)CC1` (racemic) [Compound 36, rac-4-(4-acryloylpiperazin-1-yl)-N-(trans-4-aminotetrahydrofuran-3-yl)-7-(8-methylnaphthalen-1-yl)-5,6,7,8-tetrahydro-1,7-naphthyridine-2-carboxamide]: 1520 nM; for `C=CC(=O)N1CCN(c2cc(C(=O)NCCC3CCCN3C)nc3c2CCN(c2cccc4cccc(C)c24)C3)CC1` (racemic) [Compound 57, rac-4-(4-acryloylpiperazin-1-yl)-7-(8-methylnaphthalen-1-yl)-N-(2-(1-methylpyrrolidin-2-yl)ethyl)-5,6,7,8-tetrahydro-1,7-naphthyridine-2-carboxamide]: 3410 nM. Still for that read-out and setting: the figure for `C=CC(=O)N1CCN(c2cc(C(=O)N[C@H]3COC[C@@H]3N(C)C)nc3c2CCN(c2cccc4cccc(C)c24)C3)CC1` (racemic) [Compound 32, rac-4-(4-acryloylpiperazin-1-yl)-N-(trans-4-(dimethylamino)tetrahydro-furan-3-yl)-7-(8-methylnaphthalen-1-yl)-5,6,7,8-tetrahydro-1,7-naphthyridine-2-carboxamide] is 4470 nM.
